EP0155623A2, “Use of lipoxygenase inhibitors for the preparations of cytoprotective pharmaceutical compostions and process for the preparation of a cytoprotective pharmaceutical composition” (Merck & Co., Inc., priority 1984, dated 1985)

System: ulcers in 24 hr. fasted S.D. rats
Test: Indomethacin-Induced Ulcer Assay (assay B)
Assay type: in vivo
Details: 15 min prior to indomethacin 10 mg/kg p.o., stomach mucosae examined 4 hours later
Procedure: B. Indomethacin-Induced Ulcer Assay
Indomethacin, 10 mg/kg p.o., is used to induce ulcers in 24 hr. fasted S.D. rats. Fifteen minutes prior to indomethacin administration, groups of rats each receive either an aqueous vehicle (5% wt. methylcellulose) or the test compound at various doses perorally. Four hours later the animals are sacrificed and stomach-mucosae are examined for resulting ulcers.
Following the procedure of assay B (Indomethacin-Induced Ulcer Assay), 4-bromo-2,7-dimethoxy-3H-phenothiazin-3-one was tested for ulcer inhibition. For Table 49-1, % Inhibition was calculated as: [formula]

For COc1ccc2nc3cc(OC)c(=O)c(Br)c-3sc2c1 [4-Bromo-2,7-dimethoxy-3H-phenothiazin-3-one], which “% Inhibition” value (Dose 0.003 mg/kg perorally) is on record?
The value was 38%.

What about the “% Inhibition” value (Dose 0.01 mg/kg perorally) of the same molecule?
Its value is 56%.

And the “% Inhibition” value (Dose 0.03 mg/kg perorally)?
Its value is 69%.

What about the “% Inhibition” value (Dose 0.1 mg/kg perorally) of the same molecule?
The value was 66%.

What about the “% Inhibition” value (Dose 0.3 mg/kg perorally) of the same molecule?
The value was 70%.

And the “% Inhibition” value (Dose 3.0 mg/kg perorally)?
The value was 87%.
